The test system of one data set is CAPAN1. Briefly: Activity in Capan1 cells (ME1 responder line). The settings on record: Homo sapiens. It counts as cell-based. As for the experimental part: (§1) Compound 1-4 were tested (Table 1) for inhibition of ME1. […] Capan1 is an ME1 responder line. H23 is an ME1 non-responder line.
(§2) Compound 5-7 were tested (Table 2) for inhibition of ME1. […] Capan1 is an ME1 responder line. H23 is an ME1 non-responder line.

In another data set the test system is H23. Briefly: Activity in H23 cells (ME1 non-responder line). It is filed as cell-based. The settings on record: Homo sapiens. How it is done:
as §1, §2

A short description of a further data set: Permeability pH 6.5. It is filed as in vitro ADME. The settings on record: PAMPA.
[1] abbreviates: CAPAN-1, Table 1, read-out: CAPAN1 IC50/EC50.
The mark [2] stands for this setting: NCI-H23, Table 1, read-out: H23 IC50/EC50.
The mark [3] stands for this setting: CAPAN-1, Table 2, read-out: CAPAN1 IC50/EC50.
Where [4] appears, read: NCI-H23, Table 2, read-out: H23 IC50/EC50.

Read-outs that look alike come from different tables or passages of the source. Where only a bound is given, the exact number is not on record here.

Take `CC1CCN(c2ccc3nnc(-c4cccc(CN(C)C)c4)n3n2)CC1` [Compound 1]: the results for the EC50 in the data set on CAPAN1 (setting [1]) and in the data set on H23 (setting [2]) were 16.1 µM and 8.1 µM, respectively. The Papp (in general, the rate of passage across a membrane or cell layer, normalised by area and donor concentration) in the data set “Permeability pH 6.5” (Table 1) was 26.5 ×10⁻⁶ cm/s.

As to `CCN1CCC(C(=O)Nc2cccc(-c3nnc4ccc(N5CCC(C)CC5)nn34)c2)CC1` [Compound 2], the EC50 in the data set with CAPAN1 (setting [1]) worked out at 3.1 µM; in the data set on H23 (setting [2]), 8.6 µM. In the data set “Permeability pH 6.5” (Table 1), the Papp is below 0.3 ×10⁻⁶ cm/s.

On to `CC1CCN(c2nc3c(c(N4CCc5n[nH]cc5C4)n2)CS(=O)(=O)C3)CC1` [Compound 3], for which the EC50 in the data set on CAPAN1 (setting [1]) was found to be 26.6 µM; in the data set on H23 (setting [2]), 4.8 µM. For the same compound, the Papp in “Permeability pH 6.5” (Table 1) is above 30 ×10⁻⁶ cm/s.

In the case of `Cc1nn(-c2ccc(Cl)cc2)c2ncc(C(=O)NC3CCN(C)CC3)cc12` [Compound 4], the EC50 with CAPAN1 (setting [1]) was found to be 1.8 µM. For the same compound, the Papp in “Permeability pH 6.5” (Table 1) was above 30 ×10⁻⁶ cm/s.

With `Cc1cc(=O)c(O)cn1CCN1CCCc2ccccc21` [Compound 5], the EC50 with CAPAN1 (setting [3]) was found to be 2.4 µM; in the data set with H23 (setting [4]) it was 8.6 µM. Besides, in “Permeability pH 6.5” (Table 2), the Papp was 15.1 ×10⁻⁶ cm/s.

For `Cc1cc(=O)c(O)cn1CCCc1ccc(Cl)cc1` [Compound 6], the EC50 is 0.78 µM with CAPAN1 (setting [3]) and 1.7 µM in the data set with H23 (setting [4]). Further, the Papp in “Permeability pH 6.5” (Table 2) worked out at 18.1 ×10⁻⁶ cm/s.

Turning to `Cc1cc(=O)c(O)c(CN2CC=C(c3ccc(F)cc3)CC2)n1C` [Compound 7], the EC50 in the data set on CAPAN1 (setting [3]) was found to be 26.6 µM; with H23 (setting [4]), 5.7 µM.

These data come from patent US20250134888A1, “INHIBITORS OF MALIC ENZYME 1” (Cornell University, priority 2022, published 2025).
